The values below come from patent publication US4659728A, “Hydroxy substituted 4,5-diphenyl-2-oxazole propanoic acid” (American Home Products Corporation, priority 1985, dated 1987).

Test [1] has as its system inflammation. As to the kind of experiment: Antiinflammatory activity overall (standard procedures: carrageenan paw edema and adjuvant arthritis in the rat). Format: in vivo. The conditions noted are these: compared with oxaprozin. The protocol: (§1) The antiinflammatory utility of the compounds of this invention was established by standard procedures for evaluating antiinflammatory agents, namely, carrageenan paw edema in the rat and adjuvant arthritis (polyarthritis) in the rat. These procedures and the results obtained are summarized below:
(§2) Groups of 6 male Sprague-Dawley rats (Honey Brook), weighing between 140-160 g were used in these experiments. Drugs were administered p.o. in 0.5% methylcellulose (400 centipoise). One hour after administering drugs or vehicle, 0.1 ml of 1% carrageenan was injected subplantar into the right hind paw. Right paw volumes were measured prior to carrageenan injection in milliliters using a mercury plethysmograph (i.e., zero time reading). After 3 hours, right paw volumes were remeasured and paw edema was calculated for each rat by subtracting the zero time reading from the 3 hour reading. Percent change in paw edema was calculated.
Groups of 10 male Lewis rats (Charles River), weighing between 150-170 g were injected s.c. into the right paw with desiccated Mycobacterium butyricum (0.5 mg/0.1 ml) suspended in light mineral oil. […] Both hind paw volumes, in milliliters, were measured by mercury plethysmography at the time of injection of the complete adjuvant (day 0). Paw volumes were measured on day 4 (injected paw only) and on day 16 (uninjected paw). […]
Background: In the carrageenan paw model, swelling and tenderness develop within hours.

Test [2] deals with carrageenan paw edema in the rat. As to the kind of experiment: Rat carrageenan edema. Format: in vivo, rat (male Sprague-Dawley). The conditions noted are these: 1 h before carrageenan, edema at 3 h, *p ≤ 0.01 from control. The protocol:
as §1, §2

The subject of test [3] is adjuvant arthritis (polyarthritis) in the rat. Nature of the test: Rat adjuvant arthritis. It counts as in vivo, rat (male Lewis). The conditions noted are these: oral dose 150 mg/kg, days 0 to 15 except weekends; *p ≤ 0.01 from control. The protocol:
as §1
Groups of 10 male Lewis rats (Charles River), weighing between 150-170 g were injected s.c. into the right paw with desiccated Mycobacterium butyricum (0.5 mg/0.1 ml) suspended in light mineral oil. Drugs were administered orally in 0.5% methylcellulose. The following dosing regimen was used: days 0 to 15 except for weekends. Both hind paw volumes, in milliliters, were measured by mercury plethysmography at the time of injection of the complete adjuvant (day 0). Paw volumes were measured on day 4 (injected paw only) and on day 16 (uninjected paw). Drug effects were expressed as percentage change from arthritic controls.

Molecules are shown by their SMILES.

Take `O=C(O)CCc1nc(-c2ccccc2)c(-c2ccc(O)cc2)o1` [Example 1, 5-(4-hydroxyphenyl)-4-phenyl-2-oxazolepropanoic acid]: the “effectiveness in inhibiting inflammation” value in test [1] is recorded as “as effective as oxaprozin in inhibiting inflammation”. The “% Inhibition of control paw edema” value in test [2] (oral dose 150 mg/kg) stood at 43%. Further, in test [3], the “% Inhibition of control uninjected paw edema at day 16” value (“% Inhibition … at day 16” below) amounted to 36%.
In the case of `O=C(O)CCc1nc(-c2ccc(O)cc2)c(-c2ccccc2)o1` [Example 2, 4-(4-Hydroxyphenyl)-5-phenyl-2-oxazolepropanoic acid], the “effectiveness in inhibiting inflammation” value in test [1] is “as effective as oxaprozin in inhibiting inflammation”. The “% Inhibition of control paw edema” value in test [2] (oral dose 150 mg/kg) was 46%. For the same compound, in test [3], the “% Inhibition … at day 16” value turned out to be 30%.
Regarding `O=C(O)CCc1nc(-c2ccccc2)c(-c2ccccc2)o1` [Oxaprozin, 4,5-diphenyl-2-oxazolepropanoic acid, reference compound], in test [2] (oral dose 200 mg/kg), the “% Inhibition of control paw edema” value is 51%. Also, the “% Inhibition … at day 16” value in test [3] was 25%.
